Experimental data published in patent US12636285B2 (ViiV Healthcare Company, priority 2019, dated 2026).
“And” between values parts separate entries of the source, which are not always exact repeats. Equal values may be shown once. Read-outs that look alike come from different tables or passages of the source.

Experiments:
[1] = test system: human cellular DNA polymerases α, β, and γ; assay: Inhibition of human cellular DNA polymerases; assay type: biochemical
[2] = Fertility studies in rats; assay type: in vivo, rat; conditions: up to 400 mg/kg/day, dose with maternal toxicity
group O primary isolates = assay: Antiviral activity against group O primary isolates; assay type: cell-based, HIV-1; conditions: Human immunodeficiency virus 1, read-out: EC50 values
[3] = Pharmacokinetic properties of the components of the Combination (Table 6); parameters: species or system human; conditions: in vivo
[4] = Binding to human plasma proteins; assay type: in vitro ADME; conditions: read-out: % Bound to human plasma proteins (converted)
[5] = test system: HIV-1 with NNRTI substitutions; assay: Cross-resistance of rilpivirine, NNRTI substitutions; assay type: cell-based
[6] = Pharmacokinetics in specific populations (renal, hepatic impairment, UGT1A1 genotype); assay type: in vivo, human; conditions: for exposure higher than matched controls: n=8
Description: No dosage adjustment is necessary for patients with mild to severe renal impairment (not on dialysis).
No dosage adjustment is necessary for patients with mild to moderate hepatic impairment (Child-Pugh Score A or B).
No dose adjustment is required in subjects with UGT1A1 polymorphisms.

[7] = Mass balance studies, single-dose oral [14C] drug; assay type: in vivo, human; conditions: single-dose oral [14C] drug
[8] = Lactating rats, exposure of pups through milk; assay type: in vivo, rat; conditions: administered to lactating rats
Description: The Centers for Disease Control and Prevention recommends that HIV-1-infected mothers in the United States not breastfeed their infants to avoid risking postnatal transmission of HIV-1 infection. It is not known if the components of the Combination are present in human breast milk, affect human milk production, or have effects on the breastfed infant. […] Animal Data: Cabotegravir: […] Rilpivirine: […]

[9] = Genotoxicity: bacterial reverse mutation assay, mouse lymphoma assay, in vivo rodent micronucleus assay
HIV-1 = assay: Antiviral activity in combination with other antivirals, cell culture; assay type: cell-based
[10] = Multiple-dose pharmacokinetics after monthly IM injections, population PK post-hoc estimates FLAIR and ATLAS; assay type: in vivo, human; conditions: 600-mg monthly IM injection
[11] = QT crossover trial of oral rilpivirine in healthy adults; assay type: in vivo, human
Description: The maximum mean time-matched (95% upper confidence bound) differences in QTcF interval from placebo after baseline correction was 2.0 (5.0) msec (i.e., below the threshold of clinical concern).

[12] = in vivo
Description: The observed hepatocellular findings in mice may be rodent specific.

[13] = test system: HIV-1 group M (subtypes A, B, C, D, F, G, and H) primary isolates; assay: Antiviral activity against group M primary isolates; assay type: cell-based; conditions: Human immunodeficiency virus 1, read-out: EC50 values
[14] = Phase 3 clinical trials of oral rilpivirine (rash); assay type: in vivo, human
Description: According to another aspect of the main embodiment, precautions are taken prior to and during treatment with the Combination. Severe skin and hypersensitivity reactions have been reported during postmarketing experience with oral rilpivirine-containing regimens including cases of Drug Reaction with Eosinophilia and Systemic Symptoms (DRESS). While some skin reactions were accompanied by constitutional symptoms such as fever, other skin reactions were associated with organ dysfunctions, including elevations in hepatic serum biochemistries.

[15] = cited from earlier work
HIV-1111B = assay: Antiviral activity in an acutely infected T-cell line; assay type: cell-based, HIV-1; conditions: Human immunodeficiency virus 1, read-out: median EC50

Cc1cc(/C=C/C#N)cc(C)c1Nc1ccnc(Nc2ccc(C#N)cc2)n1 [Rilpivirine, 4-[[4-[[4-[(E)-2-cyanoethenyl]-2,6-dimethylphenyl]amino]-2-pyrimidinyl]amino]benzonitrile]
inhibition of human cellular DNA polymerases α, β, and γ [1]: does not inhibit
effects on mating or fertility [2]: no effects on mating or fertility
EC50 (group O primary isolates): 2.88 nM to 8.45 nM and 0.00106 µg/mL to 0.0031 µg/mL
Tmax ([3]; human, im, intramuscular injection, read-out: Tmax, median (converted)): 72 to 96 h
half-life ([3]; human, im, intramuscular injection, read-out: t1/2 (absorption rate limited), mean): 91 to 196 days
Major route of elimination [3]: Metabolism
Metabolic pathways [3]: CYP3A
fraction unbound [4]: 0.003
susceptibility with K103N substitution by itself [5]: did not show reduced susceptibility
exposure higher than matched controls ([6]; mild hepatic impairment (Child-Pugh Score A)): 47%
exposure higher than matched controls ([6]; moderate hepatic impairment (Child-Pugh Score B)): 5%
effect of mild renal impairment on exposure ([6]; oral rilpivirine, population pharmacokinetic analyses): no clinically relevant effect
% of dose excreted as total 14C in feces [7]: 85%
% of dose excreted as total 14C in urine [7]: 6%
% of dose excreted as unchanged drug in feces [7]: (26) %
% of dose excreted as unchanged drug in urine [7]: (<1) %
presence in milk [8]: present in milk
genotoxicity [9]: not genotoxic
antiviral activity combined with listed NNRTIs, NRTIs, protease inhibitors, enfuvirtide, maraviroc, or raltegravir (HIV-1): not antagonistic
Ctrough, geometric mean [10]: 82.2 ng/mL
AUC ([10]; human, in vivo, read-out: AUCtau, geometric mean): 65600 ng·h/mL
Cmax ([10]; human, in vivo, read-out: Cmax, geometric mean): 116 ng/mL
maximum mean time-matched (95% upper confidence bound) difference in QTcF interval from placebo after baseline correction ([11]; oral 25 mg once daily, steady state): 2.0 (5.0) msec
maximum mean time-matched (95% upper confidence bound) difference in QTcF interval from placebo after baseline correction ([11]; oral 75 mg once daily): 10.7 (15.3) msec
maximum mean time-matched (95% upper confidence bound) difference in QTcF interval from placebo after baseline correction ([11]; oral 300 mg once daily): 23.3 (28.4) msec
carcinogenicity ([12]; mouse): positive for hepatocellular neoplasms
carcinogenicity ([12]; rat): not carcinogenic
EC50 [13]: 0.07 nM to 1.01 nM and 3e-05 µg/mL to 0.00037 µg/mL
Grade 4 rash [14]: no Grade 4 rash was reported
treatment-related rashes with at least Grade 2 severity, subjects [14]: 3%
prevalence of birth defects in live births ([15]; first trimester exposure to rilpivirine-containing regimens): 0.9%
prevalence of birth defects in live births ([15]; second/third trimester exposure to rilpivirine-containing regimens): 1.24%
EC50 (HIV-1111B): 0.73 nM and 0.00027 µg/mL
